Source: patent US20110039763A1, “TARGETED ANTIMICROBIAL MOIETIES” (C3 JIAN, INC., priority 2009, published 2011)
Entries after “also recorded” stand apart in the source; their conditions may differ.

Legend:
[1] = test system: microorganisms; assay: Peptide activities: targeting/binding, antimicrobial, growth or phenotype altering (Tables 7, 8); assay type: cell-based; details: peptides having multiple activities
[2] = test system: microorganisms; assay: Targeting peptide binding to target microorganisms (Tables 3, 10, 12); details: microorganism(s) the targeting peptide binds; binding in aqueous buffers varied with peptide solubility, preferably 1x PBS
[3] = test system: microorganisms; assay: Morphology, biofilm and growth disrupting peptides (Table 5); assay type: cell-based; design: key: A: Peptide aggregates; B: Less hyphal formation; Clumps; Diffuse clumps and small polyps; F: Diffuse growth; H: Thin; I: Growth inhibition; Microcolony formation; Rippled; Small polyps; Thick; W: Halo formation on top, microlonies on bottom
Description: In certain embodiments peptides that induce alterations in phenotype or other biological activities can also be used as antimicrobial effector moieties.

Substance | Activities [1] | Target(s) [2] | Organism, effect: M. luteus [3] | Organism, effect: S. epidermidis [3] | Organism, effect: B. subtilis [3] | Organism, effect: E. coli [3] | Organism, effect: MRSA [3] | Organism, effect: C. jejuni ([3]; C. jejuni) | Organism, effect: E. faecalis [3] | Organism, effect: S. pneumoniae ([3]; S. pneumoniae)
PF-234: peptide having multiple activities (RTPYILRS; Peptide with targeting and/or antimicrobial activity) | G B | S. epidermidis; also recorded: M. luteus | M. luteus (T) | – | – | – | – | – | – | –
PF-235: peptide having multiple activities (GIPFSKPHKRQVNYMKSDVLAYIEQNKMAHTA; Peptide with targeting and/or antimicrobial activity) | G B | S. epidermidis; also recorded: M. luteus | M. luteus (T) | – | – | – | – | – | – | –
PF-249: peptide having multiple activities (chain 1 INSRYKISF; chain 2 INSRYKISF; Peptide with targeting and/or antimicrobial activity) | G B | S. epidermidis; also recorded: M. luteus | M. luteus (R) | – | – | – | – | – | – | –
PF-255: peptide having multiple activities (chain 1 DHKINESQHNPFRSDSNKQNVDFF; chain 2 DHKINESQHNPFRSDSNKQNVDFF; Peptide with targeting and/or antimicrobial activity) | G B | P. aeruginosa | M. luteus (M) | – | – | – | – | – | – | –
PF-271: peptide having multiple activities (chain 1 AAQPQTTSP; chain 2 AAQPQTTSP; Peptide with targeting and/or antimicrobial activity) | G B | S. epidermidis; also recorded: M. luteus; also recorded: P. aeruginosa; also recorded: A. baumannii | M. luteus (T) | – | – | – | – | – | – | –
PF-273: peptide having multiple activities (chain 1 LVGALLIFVALIYMVLKGNADKN; chain 2 LVGALLIFVALIYMVLKGNADKN; Peptide with targeting and/or antimicrobial activity) | G B | S. epidermidis; also recorded: M. luteus; also recorded: P. aeruginosa; also recorded: A. baumannii | – | S. epidermidis (C) | – | – | – | – | – | –
PF-276: peptide having multiple activities (chain 1 LDLALSTNSLNLEGFSF; chain 2 LDLALSTNSLNLEGFSF; Peptide with targeting and/or antimicrobial activity) | G B | S. epidermidis | M. luteus (M) | – | – | – | – | – | – | –
PF-292: peptide having multiple activities (chain 1 SFVSTTVRLIFEESKRYKF; chain 2 SFVSTTVRLIFEESKRYKF; Peptide with targeting and/or antimicrobial activity) | G B | S. epidermidis; also recorded: B. subtilis; also recorded: B. fragilis | – | S. epidermidis (C) | B. subtilis (C) | – | – | – | – | –
PF-294: peptide having multiple activities (chain 1 DFLVNFLWFKGELNWGKKRYK; chain 2 DFLVNFLWFKGELNWGKKRYK; Peptide with targeting and/or antimicrobial activity) | G B | S. epidermidis; also recorded: C. difficile | – | S. epidermidis (C) | – | – | – | – | – | –
PF-297: peptide having multiple activities (ISKGIDDIVYVINKILSIGNIFKIIKRK; Peptide with targeting and/or antimicrobial activity) | G B | S. epidermidis; also recorded: B. subtilis; also recorded: B. fragilis | – | S. epidermidis (C) | B. subtilis (C) | – | – | – | – | –
PF-301: peptide having multiple activities (GIVLIGLKLIPLLANVLN; Peptide with targeting and/or antimicrobial activity) | G B | C. difficile | – | S. epidermidis (C) | B. subtilis (C) | – | – | – | – | –
PF-306: peptide having multiple activities (GCILPHKKDNYNYIMSKFQDLVKITSKK; Peptide with targeting and/or antimicrobial activity) | G B | C. difficile | – | – | B. subtilis (C) | – | – | – | – | –
PF-313: peptide having multiple activities (YITSHKNARAIIKKFERDEILEEVITHYLNRK; Peptide with targeting and/or antimicrobial activity) | G B | S. epidermidis; also recorded: C. difficile | – | S. epidermidis (C) | – | – | – | – | – | –
PF-344: peptide having multiple activities (DERLPEAKAIRNFNGSVMVLGR; Peptide with targeting and/or antimicrobial activity) | G B | B. subtilis; also recorded: C. jejuni | – | – | – | E. coli (A) | – | – | – | –
PF-350: peptide having multiple activities (LAVILRAIVY; Peptide with targeting and/or antimicrobial activity) | G B | S. epidermidis; also recorded: E. coli; also recorded: E. faecalis; also recorded: C. jeikeium; also recorded: C. jejuni | – | S. epidermidis (C) | – | E. coli (C) | MRSA (C) | – | – | –
PF-360: peptide having multiple activities (chain 1 MEQKVKVIFVPRSKPDNQLKTFVSAVLFKA; chain 2 MEQKVKVIFVPRSKPDNQLKTFVSAVLFKA; Peptide with targeting and/or antimicrobial activity) | G B | S. epidermidis; also recorded: B. subtilis; also recorded: E. coli; also recorded: P. aeruginosa; also recorded: C. albicans; also recorded: E. faecalis; also recorded: C. jeikeium; also recorded: C. jejuni | – | S. epidermidis (S) | – | E. coli (C) | MRSA (H) | – | – | –
PF-362: peptide having multiple activities (chain 1 NIERILKEKVWMIRCVE; chain 2 NIERILKEKVWMIRCVE; Peptide with targeting and/or antimicrobial activity) | G B | S. epidermidis; also recorded: E. coli; also recorded: P. aeruginosa; also recorded: C. albicans; also recorded: E. faecalis; also recorded: C. jejuni | – | – | – | E. coli (C) | MRSA (C) | – | – | –
PF-363: peptide having multiple activities (chain 1 SMLSVTVMCLMHASVAANQAMEKKV; chain 2 SMLSVTVMCLMHASVAANQAMEKKV; Peptide with targeting and/or antimicrobial activity) | G B | B. subtilis; also recorded: E. coli; also recorded: P. aeruginosa; also recorded: C. albicans; also recorded: S. pneumoniae; also recorded: E. faecalis | – | S. epidermidis (S) | – | E. coli (C) | MRSA (H) | C. jejuni (D) | E. faecalis (D) | S. pneumoniae (R)
PF-370: peptide having multiple activities (chain 1 VIFLHKESGNLKEIFY; chain 2 VIFLHKESGNLKEIFY; Peptide with targeting and/or antimicrobial activity) | G B | S. epidermidis; also recorded: E. coli; also recorded: P. aeruginosa; also recorded: E. faecalis; also recorded: C. jejuni | – | S. epidermidis (C) | – | E. coli (R) | MRSA (C) | – | – | –
PF-373: peptide having multiple activities (chain 1 HFYLLFER; chain 2 HFYLLFER; Peptide with targeting and/or antimicrobial activity) | G B | S. epidermidis and E. coli and P. aeruginosa and C. albicans and MRSA and E. faecalis and C. jejuni | – | S. epidermidis (M) | – | – | MRSA (M) | – | – | –
PF-378: peptide having multiple activities (chain 1 ESAKSNLNFLMQEEWALFLLL; chain 2 ESAKSNLNFLMQEEWALFLLL; Peptide with targeting and/or antimicrobial activity) | G B | B. subtilis; also recorded: B. fragilis; also recorded: E. coli; also recorded: P. aeruginosa; also recorded: C. jeikeium | – | S. epidermidis (M) | – | – | MRSA (M) | – | – | –
PF-381: peptide having multiple activities (chain 1 QGANPCQQVGFTVNDPDCRLAKTV; chain 2 QGANPCQQVGFTVNDPDCRLAKTV; Peptide with targeting and/or antimicrobial activity) | G B | E. coli; also recorded: P. aeruginosa; also recorded: C. jejuni | – | S. epidermidis (C) | – | E. coli (R) | MRSA (C) | – | E. faecalis (C) | –
PF-382: peptide having multiple activities (chain 1 KYKCSWCKRVYTLRKDHKTAR; chain 2 KYKCSWCKRVYTLRKDHKTAR; Peptide with targeting and/or antimicrobial activity) | G B | S. epidermidis; also recorded: B. subtilis; also recorded: B. fragilis; also recorded: E. coli; also recorded: P. aeruginosa; also recorded: E. faecalis; also recorded: C. jeikeium; also recorded: C. jejuni | – | – | – | – | MRSA (M) | – | – | –
